According to PubChem BioAssay (NCI):
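Exposure lasted 48 hours, with cells grown in 96-well plates and compounds tested at five concentrations. At the GI50, growth is halved. TGI denotes the concentration required for complete inhibition of growth.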

Legend:
Test in all cases: DTP human tumour cell line panel, 48 h
786-0 renal = tested on: 786-0 renal
BT-549 breast = tested on: BT-549 breast
EKVX NSCLC = tested on: EKVX NSCLC
HCT-116 colon = tested on: HCT-116 colon
K-562 leukemia = tested on: K-562 leukemia
LOX IMVI melanoma = tested on: LOX IMVI melanoma
SNB-75 CNS = tested on: SNB-75 CNS
T-47D breast = tested on: T-47D breast
U251 CNS = tested on: U251 CNS
UACC-62 melanoma = tested on: UACC-62 melanoma

Structure (SMILES)	GI50 (786-0 renal)	TGI (786-0 renal)	GI50 (BT-549 breast)	TGI (BT-549 breast)	GI50 (EKVX NSCLC)	TGI (EKVX NSCLC)	GI50 (HCT-116 colon)	TGI (HCT-116 colon)	GI50 (K-562 leukemia)	TGI (K-562 leukemia)	GI50 (LOX IMVI melanoma)	TGI (LOX IMVI melanoma)	GI50 (SNB-75 CNS)	TGI (SNB-75 CNS)	GI50 (T-47D breast)	TGI (T-47D breast)	GI50 (U251 CNS)	TGI (U251 CNS)	GI50 (UACC-62 melanoma)	TGI (UACC-62 melanoma)
NC(=O)c1cc(Br)cc(C2CCCCC2)c1O	11.8 µM	24.4 µM	13.6 µM	26.4 µM	15.1 µM	30.5 µM	12.5 µM	25 µM	14.4 µM	34.5 µM	13.2 µM	26 µM	11.9 µM	25.9 µM	11.5 µM	27 µM	10.8 µM	23 µM	11.5 µM	23.9 µM
NNc1nc2ccccc2c(=O)n1NC(=O)C(=O)Nc1cccc(C(F)(F)F)c1		> 100 µM		> 100 µM		> 100 µM		> 100 µM		> 100 µM		> 100 µM		> 100 µM		> 100 µM		> 100 µM		> 100 µM
COc1ccc2c(Nc3ccc(NS(C)(=O)=O)cc3)c3ccccc3nc2c1	0.544 µM	4.24 µM	1.5 µM	3.67 µM	1.43 µM	8.2 µM	0.262 µM	3.96 µM	0.674 µM	> 100 µM	0.285 µM	2.34 µM	0.718 µM	2.12 µM	0.34 µM	3.14 µM	0.475 µM	9.02 µM	0.383 µM	1.93 µM
O=C1C=C(Br)C(=O)C12CCc1ccccc12 (centres undefined)		42.3 µM		34.2 µM		62 µM		28.7 µM		9.26 µM		31.7 µM		29.5 µM		50.4 µM		41.8 µM		32 µM
C1CSCCCSCCSCCCSC1		> 100 µM		> 100 µM		> 100 µM		> 100 µM		> 100 µM		> 100 µM		> 100 µM		> 100 µM		> 100 µM		> 100 µM
CCOC(=O)C(=Cc1ccccc1[N+](=O)[O-])C(=O)OCC	3.85 µM	11.8 µM	5.28 µM	17.3 µM	6.61 µM	20.9 µM	2.53 µM	7.56 µM	3.64 µM	> 100 µM	1.58 µM	3.51 µM	2.57 µM	9.68 µM	3.68 µM	17.5 µM	3.65 µM	13.1 µM	1.59 µM	3.39 µM
C=C1C(=O)OC2CC1C(O)C/C(C)=C/CC/C(C)=C/C(O)CC2C (centres undefined)		3.99 µM		6.45 µM		5.81 µM		3.33 µM		> 30.5 µM		2.74 µM		16.3 µM		4.48 µM		16.8 µM		6.1 µM
COc1cc2c3c(n(CCCNCCN)c(=O)c2cc1OC)-c1cc2c(cc1C3=O)OCO2	0.312 µM	2.5 µM	1.56 µM	9.7 µM	4.58 µM	17.2 µM	0.359 µM	0.986 µM	0.601 µM	3.77 µM	0.0299 µM	0.244 µM	6.34 µM	21.5 µM	> 100 µM	> 100 µM	0.0484 µM	0.533 µM	1.01 µM	2.64 µM
CC[C@@]1(O)C(=O)NCc2c1cc1n(c2=O)Cc2cc3c(N)cccc3nc2-1	1.37 µM	11.7 µM	17.8 µM	> 100 µM	16.5 µM	> 51.7 µM	1.22 µM	44.2 µM	3.09 µM		0.468 µM	9.5 µM	0.873 µM	> 18.3 µM	0.623 µM	> 19.9 µM	2 µM	> 46.8 µM	1.15 µM	20.2 µM
N#Cc1cnc2cc(OC[C@@H](O)CO)c(NC(=O)CC3CSSC3)cc2c1Nc1ccc(OCc2cccc(F)c2)c(Cl)c1	1.38 µM	4.57 µM	0.155 µM	0.523 µM	0.265 µM	1.18 µM	0.0882 µM	0.2 µM	0.0945 µM	0.207 µM	2.17 µM	3.08 µM	0.738 µM	1.58 µM	0.646 µM	1.59 µM	0.777 µM	1.59 µM	0.38 µM	1.08 µM
C=C1C(=O)O[C@H]2[C@H]1CC/C(COC(=O)NCc1ccc(Cn3c(=O)sn(CCCCl)c3=O)cc1)=C\CC[C@@]1(C)O[C@@H]21	1.48 µM	2.9 µM	1.48 µM	2.91 µM	2.82 µM	12.2 µM	0.565 µM	1.87 µM	0.726 µM	> 100 µM	1.58 µM	3.09 µM	2.03 µM	11.4 µM	1.97 µM	5.58 µM	5.05 µM	17.2 µM	1.44 µM	2.8 µM
O=C(c1ccc2ncc(-c3nc(NC4CC4)ncc3F)n2c1)N1CCOCC1	3.06 µM	27.5 µM	1.58 µM	5.29 µM	2.85 µM	71.7 µM	1.23 µM	10.4 µM	3.21 µM	29 µM	1.11 µM	41.4 µM	1.47 µM	3.58 µM	2 µM	7.49 µM	2.46 µM	> 100 µM	1.54 µM	3.6 µM
